In patent US20230107128A1, “SCREENING SYSTEM FOR HUMAN-TRANSFORMED CARTILAGE CELL LINE-BASED CARTILAGE DISEASE TREATMENT AGENTS” (LUGEN SCI CO., LTD., priority 2018, published 2023):
“Also recorded” adds a separate entry of the source. Where two headings read alike, the source gives them in different places.

What was measured:
C28/I2 cell line = format: cell-based, human
Method: To confirm the effect of 2-AQCA on inhibiting a cell growth rate and the presence of toxicity, the cells to be analyzed (C28/I2 cell line and chondrocytes isolated from osteoarthritis patients) were seeded and fixed at an initial concentration of 10,000 cells per well in a 96-well plate 24 hours before the experiment, and the cells were subjected to starvation in serum-free culture fluid for seven hours on the following next day. After that, while the culture fluid was replaced with a serum culture fluid containing 10% FBS, the experimental groups were treated repeatedly three times with Kartogenin and 2-AQCA at each concentration and further cultured for 48 hours. The cells were treated with the test materials at each concentration of 0, 3.125, 6.25, 12.5, and 25 μM, which had been used to verify the effect of treatment at each of the concentrations. Similarly, in order to equalize the experimental conditions, the treatment was performed so that the final concentration of DMSO was 0.25% in all the experimental groups. […] Then, the absorbance of each cell was measured at 450 nm by using a TECAN SPARK multi-reader.

Sox9 = assay: Rq-PCR of Sox9 expression in C28/I2 micromass culture; format: cell-based, human; details: 10 μM, 14 days micromass culture
Method: (§1) C28/I2 cell lines were subjected to micromass culture in order to compare and examine the change in the expression of Col2a1 and Sox9, which are the representative cartilage differentiation markers, and Col10, which is a cartilage hypertrophy marker, by treatment with the complex functional natural material 2-AQCA during long-term culture for inducing cartilage differentiation. For this purpose, the C28/I2 cells cultured for three days were collected and a cell fluid was prepared at a concentration of 2×10^7 cells/ml, and then 10 μl of cells were taken and injected into the center of a 24-well plate, and fixed in an incubator of 37° C., 5% CO2 for two to three hours until all the cells were attached to the bottom. When all the cells were fixed, 500 μl of serum culture fluid (DMEM/F12, 10% FBS, 1% penicillin, and streptomycin) was added and further cultured for seven hours or more. […]
(§2) After completing the micromass culture for 14 days, RNA was isolated from each cell pellet by using TRIzol™, and cDNA was synthesized from the isolated RNA. The synthesized cDNA was compared and analyzed for expression of the corresponding gene through a real-time quantitative polymerase chain reaction (Rq-PCR) by using a specific primer for each gene. […]

[1] = tested on: human type II collagen fusion promoter (Col2a1 promoter); assay: Luciferase reporter screening system in C28/I2-EC2P-fLuc-CN5 cell line; format: cell-based; details: for cartilage regeneration activity (luminescence) compared with Kartogenin; criterion equal to or higher than Kartogenin: 50 μM, 48 hours, screen of 37 natural products
Method: All the experimental groups for the verification of the screening system according to the present invention and the search for novel cartilage regeneration materials were prepared by dissolving the same in dimethyl sulfoxide (DMSO) at the same concentration of 20 mM. The cells to be analyzed were seeded and fixed into a white-bottom 96-well plate, which was a plate exclusively used for luminescence analysis, at an initial concentration of 10,000 cells per well 24 hours before the experiment. On the following day, the cells were subjected to starvation in serum-free culture fluid (DMEM/F12 media) for seven hours. After that, while the culture fluid was replaced with the serum culture fluid [DMEM/F12, 10% FBS, 1% penicillin, and streptomycin], the experimental groups on natural products at each 20 mM were diluted 1/400, treated repeatedly three times, and further cultured for 48 hours.
After further culturing the cells to be analyzed, which were treated with natural materials in above 5.1, for 48 hours, all the culture fluid was removed and replaced with a new culture fluid containing D-luciferin at a final concentration of 150 μg/ml and reacted at room temperature for five minutes. Then, the degree of light emission from each cell was measured by using the luminescence analysis function of the TECAN SPARK multi-reader.
By using the screening system for cartilage disease treatment agents according to the present invention, the pattern of changes in cartilage regeneration activity according to the treatment concentration of 2-AQCA was compared with the activity of Kartogenin, a positive control group of natural material.

Col10a1 = assay: Rq-PCR of Col10a1 expression in C28/I2 micromass culture; format: cell-based, human; details: 10 μM, 14 days micromass culture
Method: as §1, §2

Col2a1 = assay: Rq-PCR of Col2a1 expression in C28/I2 micromass culture; format: cell-based, human; details: 10 μM, 14 days micromass culture
Method: as §1, §2

[2] = C28/I2-EC2P-fLuc-CN5, drug 0 to 50 μM

SMILES | cell growth rate higher than that of Kartogenin (C28/I2 cell line; C28/I2, 6.25 μM) | cell growth rate higher than that of Kartogenin (C28/I2 cell line; C28/I2, 12.5 μM) | Sox9 expression relative to the negative control group (Sox9) | cartilage regeneration activity compared with Kartogenin ([1]; 25 μM) | cartilage regeneration activity (luminescence) compared with Kartogenin; criterion equal to or higher than Kartogenin [1] | cartilage regeneration activity compared with Kartogenin ([1]; concentration of less than 25 μM) | decrease in Col10a1 expression compared to the negative control group (Col10a1) | Col2a1 expression rate relative to the Kartogenin group (Col2a1) | Col2a1 expression rate relative to the negative control group (Col2a1) | luciferase activity at 50 μM ([1]; C28/I2-EC2P-fLuc-CN5, 50 μM) | luciferase activity with increasing concentration [1, 2] | cytotoxicity indirectly suggested by the luciferase activity ([1]; high concentration (50 μM)) | luciferase activity compared with Kartogenin [1, 2]
O=C(O)c1ccc2c(c1)C(=O)c1ccccc1C2=O [2-AQCA, 2-anthraquinonecarboxylic acid] | about 11% | about 8.2% | at least 2.1 times | slightly higher than that of Kartogenin | complies with the above conditions | somewhat lower than that of Kartogenin | about 40% | about 4.2 times | 7.6 times | – | – | – | –
O=C(O)c1ccccc1C(=O)Nc1ccc(-c2ccccc2)cc1 [Kartogenin] | – | – | insignificant increase | – | – | – | about 40% | – | – | decreases the luciferase activity | increased as the concentration of both drugs is increased | has cytotoxicity at a high concentration | –
Cn1ncc2c1-c1c(Oc3ccc(OCc4ccc5ccccc5n4)cc3)sc(C(N)=O)c1CC2 [TD-198946] | – | – | – | – | higher than that of Kartogenin | – | – | – | – | – | increased as the concentration of both drugs is increased; also recorded: continuously increases the luciferase activity | – | higher than that of Kartogenin
